Experimental data from ChEMBL document CHEMBL1201862, “PubChem BioAssay data set” (2004).
Activity calls are given as the source filed them.

Key:
[1] = target: Adenosylmethionine-8-amino-7-oxononanoate aminotransferase (Mycobacterium tuberculosis, UniProt P9WQ81); assay: Mycobacterium tuberculosis BioA enzyme inhibitor Measured in Biochemical System Using Plate Reader - 2163-02_Inhibitor_Dose_CherryPick_Activity.; type: functional, Mycobacterium tuberculosis UT205
Cytochrome P450 1A2 = target: T1, Cytochrome P450 1A2 (Homo sapiens, UniProt P05177);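 further: PubChem cytochrome P450 panel assay, CYP1A2 panel member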
T1 sequence (P05177 whole entry): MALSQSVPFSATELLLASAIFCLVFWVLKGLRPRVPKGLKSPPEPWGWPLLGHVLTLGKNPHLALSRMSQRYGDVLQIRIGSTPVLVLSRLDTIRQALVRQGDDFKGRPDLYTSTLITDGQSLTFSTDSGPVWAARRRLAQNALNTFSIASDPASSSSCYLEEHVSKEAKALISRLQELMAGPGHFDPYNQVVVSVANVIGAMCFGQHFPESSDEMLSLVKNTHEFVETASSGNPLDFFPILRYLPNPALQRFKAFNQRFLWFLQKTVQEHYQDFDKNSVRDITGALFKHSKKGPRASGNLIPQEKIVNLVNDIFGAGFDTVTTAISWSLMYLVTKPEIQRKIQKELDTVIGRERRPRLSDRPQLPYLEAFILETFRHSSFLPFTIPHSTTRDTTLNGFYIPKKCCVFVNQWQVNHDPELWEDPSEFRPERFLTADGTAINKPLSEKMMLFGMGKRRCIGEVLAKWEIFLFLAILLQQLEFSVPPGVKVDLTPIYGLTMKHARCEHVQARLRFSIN

Cytochrome P450 2D6 = Cytochrome P450 2D6 (Homo sapiens, UniProt P10635);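 further: CYP2D6 member of a cytochrome P450 panel assay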
Cytochrome P450 2D6, sequence (P10635 whole entry): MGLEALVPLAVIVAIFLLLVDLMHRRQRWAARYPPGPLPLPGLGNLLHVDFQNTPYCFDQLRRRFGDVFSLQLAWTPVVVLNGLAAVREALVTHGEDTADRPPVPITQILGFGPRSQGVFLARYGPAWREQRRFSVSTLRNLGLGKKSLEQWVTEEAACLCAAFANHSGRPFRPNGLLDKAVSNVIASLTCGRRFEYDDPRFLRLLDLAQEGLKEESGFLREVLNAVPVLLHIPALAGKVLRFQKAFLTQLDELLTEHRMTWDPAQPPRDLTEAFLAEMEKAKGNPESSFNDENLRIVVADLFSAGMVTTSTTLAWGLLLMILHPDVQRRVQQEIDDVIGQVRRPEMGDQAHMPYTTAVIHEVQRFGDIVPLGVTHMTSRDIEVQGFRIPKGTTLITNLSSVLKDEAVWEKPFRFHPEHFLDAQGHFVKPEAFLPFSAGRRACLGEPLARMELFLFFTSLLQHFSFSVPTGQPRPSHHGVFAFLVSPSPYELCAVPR

Protein Wnt-3a = Protein Wnt-3a (Mus musculus, UniProt P27467); assay: Wnt3a-driven reporter signaling inhibition, dose response, selectivity assay for Gli-SUFU antagonist project, Wnt-LIGHT cells, luminescence (AID 651570); type: functional; details: read-out: IC50_Mean;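 further: Wnt-LIGHT reporter cells stimulated with conditioned medium from Wnt3a-producing cells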
Protein Wnt-3a, sequence (P27467 whole entry): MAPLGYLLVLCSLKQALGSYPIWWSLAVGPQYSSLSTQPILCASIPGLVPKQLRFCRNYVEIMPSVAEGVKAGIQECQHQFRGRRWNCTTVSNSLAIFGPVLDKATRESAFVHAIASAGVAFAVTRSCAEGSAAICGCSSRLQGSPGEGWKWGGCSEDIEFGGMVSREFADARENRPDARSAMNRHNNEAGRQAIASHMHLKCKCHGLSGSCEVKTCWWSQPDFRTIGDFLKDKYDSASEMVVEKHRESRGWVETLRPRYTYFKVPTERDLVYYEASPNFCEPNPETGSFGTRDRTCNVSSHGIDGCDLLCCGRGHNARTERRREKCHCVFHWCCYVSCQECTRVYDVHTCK

[2] = target: T2, Endoribonuclease toxin MazF (Escherichia coli K-12, UniProt P0AE70); assay: MazF toxin RNase activators, dose response, biochemical, fluorescence, single-stranded RNA substrate, uHTS hits (AID 588481); type: functional
T2 sequence (P0AE70 whole entry): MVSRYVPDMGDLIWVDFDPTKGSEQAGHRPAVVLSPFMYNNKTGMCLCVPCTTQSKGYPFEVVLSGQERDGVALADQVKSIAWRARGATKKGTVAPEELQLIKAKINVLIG

[3] = target: T2, Endoribonuclease toxin MazF; assay: fluorescent RNA oligo signal without MazF, dose response, counter-screen for MazEF activator project, biochemical, fluorescence, single-stranded RNase substrate (AID 588502); type: functional
[4] = target: T3, Sentrin-specific protease 7 (Homo sapiens, UniProt Q9BQF6); assay: SENP7 protease inhibitors, SAR follow-up, biochemical, luminescence (AID 504497); type: functional
T3 sequence (Q9BQF6 whole entry): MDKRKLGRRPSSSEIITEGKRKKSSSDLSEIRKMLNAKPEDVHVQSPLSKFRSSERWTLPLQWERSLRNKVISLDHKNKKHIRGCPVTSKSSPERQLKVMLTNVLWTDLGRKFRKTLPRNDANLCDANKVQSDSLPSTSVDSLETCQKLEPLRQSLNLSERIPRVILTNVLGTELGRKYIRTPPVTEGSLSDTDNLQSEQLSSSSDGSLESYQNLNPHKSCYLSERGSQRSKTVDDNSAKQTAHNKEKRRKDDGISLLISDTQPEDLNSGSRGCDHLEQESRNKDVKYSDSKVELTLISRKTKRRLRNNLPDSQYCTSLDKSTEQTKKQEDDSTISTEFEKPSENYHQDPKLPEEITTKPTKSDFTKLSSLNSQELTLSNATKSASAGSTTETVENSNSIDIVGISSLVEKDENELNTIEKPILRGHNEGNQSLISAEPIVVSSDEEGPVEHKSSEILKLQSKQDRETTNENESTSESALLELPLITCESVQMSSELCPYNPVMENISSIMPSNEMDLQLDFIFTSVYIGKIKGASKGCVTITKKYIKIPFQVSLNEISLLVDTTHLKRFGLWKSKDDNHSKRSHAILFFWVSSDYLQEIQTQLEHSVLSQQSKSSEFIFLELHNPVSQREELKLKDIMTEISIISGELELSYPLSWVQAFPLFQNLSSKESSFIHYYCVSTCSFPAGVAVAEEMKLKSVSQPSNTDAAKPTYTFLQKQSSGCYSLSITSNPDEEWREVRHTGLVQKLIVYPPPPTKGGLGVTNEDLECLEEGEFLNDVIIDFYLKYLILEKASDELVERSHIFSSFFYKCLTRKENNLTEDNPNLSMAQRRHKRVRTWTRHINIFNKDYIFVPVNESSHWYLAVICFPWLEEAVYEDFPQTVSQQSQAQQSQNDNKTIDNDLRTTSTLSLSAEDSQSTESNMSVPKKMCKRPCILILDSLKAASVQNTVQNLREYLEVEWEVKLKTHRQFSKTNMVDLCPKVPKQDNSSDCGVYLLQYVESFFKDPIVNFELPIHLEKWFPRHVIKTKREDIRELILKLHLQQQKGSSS

[5] = target: T4, Sentrin-specific protease 6 (Homo sapiens, UniProt Q9GZR1); assay: SAR Analysis of small molecule inhibitors of Sentrin-specific protease 6 (SENP6) using a Luminescent assay. [Related pubchem assays (depositor defined):AID2582, AID2599]; type: functional
T4 sequence (Q9GZR1 whole entry): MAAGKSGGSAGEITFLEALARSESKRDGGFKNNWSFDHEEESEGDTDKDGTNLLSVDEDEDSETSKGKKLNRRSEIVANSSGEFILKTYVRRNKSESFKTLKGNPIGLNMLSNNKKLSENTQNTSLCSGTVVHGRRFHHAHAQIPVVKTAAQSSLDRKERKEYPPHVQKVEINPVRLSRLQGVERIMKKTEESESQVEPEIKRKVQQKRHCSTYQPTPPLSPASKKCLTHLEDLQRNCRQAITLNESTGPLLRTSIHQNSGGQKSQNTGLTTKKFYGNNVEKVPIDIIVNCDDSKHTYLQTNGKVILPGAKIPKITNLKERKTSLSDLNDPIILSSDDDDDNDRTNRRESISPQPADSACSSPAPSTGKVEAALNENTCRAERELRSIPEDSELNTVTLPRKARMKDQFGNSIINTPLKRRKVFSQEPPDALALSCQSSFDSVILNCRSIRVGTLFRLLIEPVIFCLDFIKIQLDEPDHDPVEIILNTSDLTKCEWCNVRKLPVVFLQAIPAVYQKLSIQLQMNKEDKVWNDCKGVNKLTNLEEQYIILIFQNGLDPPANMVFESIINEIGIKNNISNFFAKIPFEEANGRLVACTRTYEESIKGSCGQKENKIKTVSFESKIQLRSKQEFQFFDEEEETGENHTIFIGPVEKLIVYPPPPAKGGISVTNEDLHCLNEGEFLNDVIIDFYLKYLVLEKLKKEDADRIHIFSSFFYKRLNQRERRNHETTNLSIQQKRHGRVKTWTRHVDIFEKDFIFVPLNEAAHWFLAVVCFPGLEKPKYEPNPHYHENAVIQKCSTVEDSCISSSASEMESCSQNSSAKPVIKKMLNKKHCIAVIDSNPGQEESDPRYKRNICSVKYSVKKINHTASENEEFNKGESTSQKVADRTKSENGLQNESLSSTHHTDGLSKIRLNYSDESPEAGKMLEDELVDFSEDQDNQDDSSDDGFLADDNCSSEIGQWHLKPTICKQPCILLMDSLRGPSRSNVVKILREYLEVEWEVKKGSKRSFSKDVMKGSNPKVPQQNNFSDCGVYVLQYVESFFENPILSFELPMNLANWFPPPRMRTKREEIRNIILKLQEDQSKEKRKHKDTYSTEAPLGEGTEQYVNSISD

[6] = target: T5, Sentrin-specific protease 8 (Homo sapiens, UniProt Q96LD8); assay: SENP8 protease inhibitors, SAR follow-up, biochemical, luminescence (AID 504501); type: functional
T5 sequence (Q96LD8 whole entry): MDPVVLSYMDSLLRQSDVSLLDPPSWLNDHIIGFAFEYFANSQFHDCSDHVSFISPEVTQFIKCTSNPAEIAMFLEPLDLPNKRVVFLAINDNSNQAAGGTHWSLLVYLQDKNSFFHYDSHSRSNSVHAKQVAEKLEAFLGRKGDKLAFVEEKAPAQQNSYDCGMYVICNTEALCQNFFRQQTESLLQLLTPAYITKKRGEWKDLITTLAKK

Caspase-3 = target: T6, Caspase-3 (Homo sapiens, UniProt P42574); assay: SAR Analysis of small molecule inhibitors of Sentrin-specific proteases (SENPs) using a Caspase-3 Selectivity assay. [Related pubchem assays (depositor defined):AID2540, AID2599, AID434973, AID489001]; type: functional
T6 sequence (P42574 whole entry): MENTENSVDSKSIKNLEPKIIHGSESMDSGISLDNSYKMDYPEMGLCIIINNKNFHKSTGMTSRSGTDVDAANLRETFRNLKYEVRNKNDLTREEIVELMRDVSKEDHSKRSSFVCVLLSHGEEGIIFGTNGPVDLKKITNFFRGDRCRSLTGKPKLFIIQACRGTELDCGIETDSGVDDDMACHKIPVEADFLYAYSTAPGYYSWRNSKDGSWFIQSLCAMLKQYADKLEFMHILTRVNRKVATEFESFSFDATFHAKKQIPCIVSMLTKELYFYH

[7] = target: Cell division cycle 7-related protein kinase (Homo sapiens, UniProt O00311); type: functional;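 further: value obtained from a kinome-wide kinase panel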
Cell division cycle 7-related protein kinase, sequence (O00311 whole entry): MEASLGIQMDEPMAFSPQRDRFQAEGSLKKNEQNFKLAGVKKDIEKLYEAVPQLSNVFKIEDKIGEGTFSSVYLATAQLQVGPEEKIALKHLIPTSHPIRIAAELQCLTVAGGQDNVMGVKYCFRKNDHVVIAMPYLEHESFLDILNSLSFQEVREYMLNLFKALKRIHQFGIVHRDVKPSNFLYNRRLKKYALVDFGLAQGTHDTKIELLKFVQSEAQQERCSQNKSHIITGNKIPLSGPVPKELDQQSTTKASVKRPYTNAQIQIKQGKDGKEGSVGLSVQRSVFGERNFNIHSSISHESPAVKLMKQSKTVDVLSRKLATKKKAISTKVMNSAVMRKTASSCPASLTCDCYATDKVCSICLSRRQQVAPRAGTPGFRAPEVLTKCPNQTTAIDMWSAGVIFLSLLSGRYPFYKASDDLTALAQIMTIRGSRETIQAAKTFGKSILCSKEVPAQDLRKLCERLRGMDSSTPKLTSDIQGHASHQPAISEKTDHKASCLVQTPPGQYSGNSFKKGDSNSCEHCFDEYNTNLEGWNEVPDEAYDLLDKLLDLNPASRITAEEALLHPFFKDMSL

[8] = target: T7, Interleukin-1 receptor-associated kinase 4 (Homo sapiens, UniProt Q9NWZ3); type: functional
T7 sequence (Q9NWZ3 whole entry): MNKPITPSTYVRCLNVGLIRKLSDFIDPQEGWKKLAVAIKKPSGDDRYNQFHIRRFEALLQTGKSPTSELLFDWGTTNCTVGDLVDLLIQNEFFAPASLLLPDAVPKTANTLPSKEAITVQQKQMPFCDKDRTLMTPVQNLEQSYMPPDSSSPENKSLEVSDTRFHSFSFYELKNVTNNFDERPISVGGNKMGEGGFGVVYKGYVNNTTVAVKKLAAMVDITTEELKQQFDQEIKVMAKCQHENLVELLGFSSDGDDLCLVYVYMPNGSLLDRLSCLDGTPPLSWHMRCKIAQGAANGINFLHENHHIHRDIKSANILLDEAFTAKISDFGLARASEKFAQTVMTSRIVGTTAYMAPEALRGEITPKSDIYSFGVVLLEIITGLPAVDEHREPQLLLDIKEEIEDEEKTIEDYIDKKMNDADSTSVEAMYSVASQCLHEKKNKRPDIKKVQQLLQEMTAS

[9] = target: Serine/threonine-protein kinase pim-1 (Homo sapiens, UniProt P11309); type: functional
Serine/threonine-protein kinase pim-1, sequence (P11309 whole entry): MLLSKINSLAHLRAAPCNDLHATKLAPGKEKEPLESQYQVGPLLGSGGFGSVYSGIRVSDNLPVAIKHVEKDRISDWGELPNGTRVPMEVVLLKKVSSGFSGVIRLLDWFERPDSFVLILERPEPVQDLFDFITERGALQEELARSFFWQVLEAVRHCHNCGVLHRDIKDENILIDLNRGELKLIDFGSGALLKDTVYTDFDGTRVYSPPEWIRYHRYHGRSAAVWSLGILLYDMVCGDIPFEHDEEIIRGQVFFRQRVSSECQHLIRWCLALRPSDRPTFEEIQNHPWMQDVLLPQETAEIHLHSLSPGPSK

[10] = target: Homeodomain-interacting protein kinase 2 (Homo sapiens, UniProt Q9H2X6); type: functional;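 further: measured within a kinome-wide kinase profiling panel, HIPK2 being one panel member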
Homeodomain-interacting protein kinase 2, sequence (Q9H2X6 whole entry): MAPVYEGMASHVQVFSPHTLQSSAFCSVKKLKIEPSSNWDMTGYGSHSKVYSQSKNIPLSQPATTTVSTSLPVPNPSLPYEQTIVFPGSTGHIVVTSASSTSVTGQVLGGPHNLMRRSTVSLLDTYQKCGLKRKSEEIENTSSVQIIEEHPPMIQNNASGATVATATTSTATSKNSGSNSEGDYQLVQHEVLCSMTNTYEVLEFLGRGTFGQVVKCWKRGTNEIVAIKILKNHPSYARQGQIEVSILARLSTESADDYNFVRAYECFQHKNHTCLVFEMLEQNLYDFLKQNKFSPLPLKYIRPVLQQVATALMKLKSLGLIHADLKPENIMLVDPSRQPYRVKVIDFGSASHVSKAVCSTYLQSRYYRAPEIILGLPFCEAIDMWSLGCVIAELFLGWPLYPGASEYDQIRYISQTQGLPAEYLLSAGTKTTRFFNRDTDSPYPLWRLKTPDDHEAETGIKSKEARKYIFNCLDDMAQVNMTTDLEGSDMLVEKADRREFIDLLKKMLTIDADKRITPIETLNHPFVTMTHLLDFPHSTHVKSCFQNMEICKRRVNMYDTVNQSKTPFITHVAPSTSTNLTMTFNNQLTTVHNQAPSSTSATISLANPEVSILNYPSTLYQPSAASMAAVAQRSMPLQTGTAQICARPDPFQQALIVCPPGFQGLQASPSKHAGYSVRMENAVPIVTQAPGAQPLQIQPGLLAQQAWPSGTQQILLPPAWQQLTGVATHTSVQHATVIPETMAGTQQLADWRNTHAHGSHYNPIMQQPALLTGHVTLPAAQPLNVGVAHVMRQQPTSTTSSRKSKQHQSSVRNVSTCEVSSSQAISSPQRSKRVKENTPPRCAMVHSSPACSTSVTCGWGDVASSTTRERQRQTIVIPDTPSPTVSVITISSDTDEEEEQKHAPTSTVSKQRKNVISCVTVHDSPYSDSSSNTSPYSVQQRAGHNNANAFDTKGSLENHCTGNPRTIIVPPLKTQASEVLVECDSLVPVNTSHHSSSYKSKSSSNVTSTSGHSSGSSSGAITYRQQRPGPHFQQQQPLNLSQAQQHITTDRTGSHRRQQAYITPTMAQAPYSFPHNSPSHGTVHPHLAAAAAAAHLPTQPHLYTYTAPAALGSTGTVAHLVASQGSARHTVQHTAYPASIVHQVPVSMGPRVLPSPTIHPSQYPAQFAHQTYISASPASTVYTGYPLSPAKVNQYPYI

[11] = target: Dual specificity protein kinase CLK4 (Homo sapiens, UniProt Q9HAZ1); type: functional
Dual specificity protein kinase CLK4, sequence (Q9HAZ1 whole entry): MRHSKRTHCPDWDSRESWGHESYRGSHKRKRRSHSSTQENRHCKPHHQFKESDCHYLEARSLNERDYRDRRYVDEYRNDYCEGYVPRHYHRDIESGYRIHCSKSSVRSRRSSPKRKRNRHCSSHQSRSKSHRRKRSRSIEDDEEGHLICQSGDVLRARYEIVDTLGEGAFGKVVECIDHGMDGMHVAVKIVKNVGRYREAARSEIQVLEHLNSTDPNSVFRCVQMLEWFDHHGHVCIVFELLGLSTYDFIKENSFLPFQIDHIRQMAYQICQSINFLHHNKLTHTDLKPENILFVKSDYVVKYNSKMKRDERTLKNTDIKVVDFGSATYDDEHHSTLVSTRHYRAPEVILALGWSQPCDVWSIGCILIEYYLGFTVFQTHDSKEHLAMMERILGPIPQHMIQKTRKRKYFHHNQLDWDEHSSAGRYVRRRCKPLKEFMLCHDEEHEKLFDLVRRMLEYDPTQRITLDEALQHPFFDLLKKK

[12] = target: cAMP-dependent protein kinase catalytic subunit alpha (Homo sapiens, UniProt P17612); type: functional
[13] = target: Glycogen synthase kinase-3 beta (Homo sapiens, UniProt P49841); type: functional;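 further: value comes from a broad kinome profiling panel, with GSK3B as the panel member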
Glycogen synthase kinase-3 beta, sequence (P49841 whole entry): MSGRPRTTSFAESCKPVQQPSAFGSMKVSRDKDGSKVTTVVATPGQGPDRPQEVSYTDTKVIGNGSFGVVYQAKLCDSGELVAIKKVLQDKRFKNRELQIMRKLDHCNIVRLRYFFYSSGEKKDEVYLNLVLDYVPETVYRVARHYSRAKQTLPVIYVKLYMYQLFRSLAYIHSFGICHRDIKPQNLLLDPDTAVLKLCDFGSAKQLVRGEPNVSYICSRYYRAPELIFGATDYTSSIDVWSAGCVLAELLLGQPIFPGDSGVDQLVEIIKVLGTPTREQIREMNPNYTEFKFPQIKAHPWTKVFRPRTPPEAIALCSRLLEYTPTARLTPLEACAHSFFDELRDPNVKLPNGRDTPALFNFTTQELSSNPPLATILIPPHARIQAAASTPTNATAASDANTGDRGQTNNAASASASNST

Adenosylmethionine-8-amino-7-oxononanoate aminotransferase, sequence (P9WQ81 whole entry): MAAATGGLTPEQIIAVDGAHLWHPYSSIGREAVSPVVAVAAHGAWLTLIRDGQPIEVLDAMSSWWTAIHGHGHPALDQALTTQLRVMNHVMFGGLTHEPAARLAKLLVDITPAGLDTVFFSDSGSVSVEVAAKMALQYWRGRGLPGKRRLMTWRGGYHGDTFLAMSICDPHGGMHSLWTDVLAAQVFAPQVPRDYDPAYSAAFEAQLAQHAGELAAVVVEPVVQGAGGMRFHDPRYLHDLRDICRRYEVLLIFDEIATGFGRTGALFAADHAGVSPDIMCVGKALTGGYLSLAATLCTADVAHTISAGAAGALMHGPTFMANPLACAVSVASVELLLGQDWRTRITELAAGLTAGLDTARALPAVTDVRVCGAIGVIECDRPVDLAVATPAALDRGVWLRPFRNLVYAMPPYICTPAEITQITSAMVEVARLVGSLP

## C=CCn1c(COc2ccccc2F)nnc1SCCN1C(=O)c2ccccc2C1=O
[1]
  AC50: 7.95 µM (active)

## Cc1nc2nc(SCC(=O)NCc3ccco3)nn2c(C)c1Cc1c(F)cccc1Cl
Cytochrome P450 1A2
  AC50: 20 µM (inconclusive)
Cytochrome P450 2D6
  AC50: 28.2 µM (inconclusive)
[1]
  AC50: 1.38 µM (active)

## CCN(CC)S(=O)(=O)c1ccc(C)c(NC(=S)N2CCN(Cc3ccc4c(c3)OCO4)CC2)c1
Protein Wnt-3a
  IC50: 2.35 µM (active)

## CCCn1c(SCC(=O)Nc2nc(-c3ccc(OC)cc3)cs2)nc2c1c(=O)n(C)c(=O)n2C
[2]
  EC50: > 99 µM (inactive)
Protein Wnt-3a
  IC50: 1.32 µM (active)
[3]
  EC50: > 99 µM (inactive)

## O=C(Nc1ccc(-c2nc3cc(Cl)ccc3o2)cc1)c1ccccc1
[4]
  IC50: > 99 µM (inactive)
[5]
  IC50: > 99 µM (inactive)
[6]
  IC50: > 99 µM (inactive)
Caspase-3
  IC50: > 99 µM (inactive)

## Clc1ccc(N/N=C/c2cn(Cc3ccccc3)c3ccccc23)cc1
[4]
  IC50: > 99 µM (inactive)
[5]
  IC50: > 99 µM (inactive)
[6]
  IC50: > 99 µM (inactive)
Caspase-3
  IC50: > 99 µM (inactive)

## O=C(Nc1ccc(Oc2ccccc2)cc1)c1ccc2c(c1)OCO2
[4]
  IC50: 1.06 µM (active)
[5]
  IC50: 1.55 µM (active)
[6]
  IC50: 2.2 µM (active)
Caspase-3
  IC50: 1.99 µM (active)

## NC(=O)c1ccc(-c2ccnc(N)n2)cc1N1CCCCC1
[7]
  Ki: 0.00794 µM (active)
[8]
  Ki: 5.01 µM (active)
[9]
  Ki: > 10 µM (inactive)
[10]
  Ki: > 3.16 µM (inactive)
[11]
  Ki: 0.00316 µM (active)
[12]
  Ki: > 7.94 µM (inactive)
[13]
  Ki: 1 µM (active)
